Data: ChEMBL document CHEMBL4613209, “Quinolone hybrids and their anti-cancer activities: An overview” (Eur J Med Chem, 2019)

test system: CAPAN-1; assay: Cytotoxicity against human Capan1 cells assessed as reduction in cell viability; assay type: functional, cell-based

`CN1CCN(c2cc3c(cc2F)c(=O)c(-c2nc4s/c(=C\c5ccc(Cl)cc5)c(=O)n4n2)cn3C2CC2)CC1` and `Cc1ccc(/C=c2\sc3nc(-c4cn(C5CC5)c5cc(N6CCN(C)CC6)c(F)cc5c4=O)nn3c2=O)cc1` cannot be ordered by IC50: > 10 µM for the first, > 10 µM for the second.

`CN1CCN(c2cc3c(cc2F)c(=O)c(-c2nc4s/c(=C\c5cccc(C(=O)O)c5)c(=O)n4n2)cn3C2CC2)CC1` and `COC(=O)c1cccc(/C=c2\sc3nc(-c4cn(C5CC5)c5cc(N6CCN(C)CC6)c(F)cc5c4=O)nn3c2=O)c1` fall in the same range of IC50: 0.3 to 8.4 µM for the first, 0.3 to 8.4 µM for the second.

`CN1CCN(c2cc3c(cc2F)c(=O)c(-c2nc4s/c(=C\c5cccc(S(N)(=O)=O)c5)c(=O)n4n2)cn3C2CC2)CC1` and `CN1CCN(c2cc3c(cc2F)c(=O)c(-c2nc4s/c(=C\c5cccc([N+](=O)[O-])c5)c(=O)n4n2)cn3C2CC2)CC1` fall in the same range of IC50: 0.3 to 8.4 µM for the first, 0.3 to 8.4 µM for the second.

`CN1CCN(c2cc3c(cc2F)c(=O)c(-c2nc4s/c(=C\c5cccc(C#N)c5)c(=O)n4n2)cn3C2CC2)CC1` and `CN1CCN(c2cc3c(cc2F)c(=O)c(-c2nc4s/c(=C\c5ccc(C#N)cc5)c(=O)n4n2)cn3C2CC2)CC1` cannot be ordered by IC50: > 10 µM for the first, > 10 µM for the second.

`CN1CCN(c2cc3c(cc2F)c(=O)c(-c2nc4s/c(=C\c5ccc([N+](=O)[O-])cc5)c(=O)n4n2)cn3C2CC2)CC1` and `CN1CCN(c2cc3c(cc2F)c(=O)c(-c2nc4s/c(=C\c5ccc(C(=O)O)cc5)c(=O)n4n2)cn3C2CC2)CC1` fall in the same range of IC50: 0.3 to 8.4 µM for the first, 0.3 to 8.4 µM for the second.

First: COc1ccc(/C=c2\sc3nc(-c4cn(C5CC5)c5cc(N6CCN(C)CC6)c(F)cc5c4=O)nn3c2=O)cc1
Second: COC(=O)c1ccc(/C=c2\sc3nc(-c4cn(C5CC5)c5cc(N6CCN(C)CC6)c(F)cc5c4=O)nn3c2=O)cc1
The IC50 of the first is higher: > 10 µM for the first, 0.3 to 8.4 µM for the second. The second is the more potent here.

With `COc1ccccc1/C=c1\sc2nc(-c3cn(C4CC4)c4cc(N5CCN(C)CC5)c(F)cc4c3=O)nn2c1=O` the IC50 was > 10 µM.

test system: Hep 3B2; assay: Cytotoxicity against human Hep3B cells assessed as reduction in cell viability; assay type: functional, cell-based

`CN1CCN(c2cc3c(cc2F)c(=O)c(-c2nc4s/c(=C\c5ccc(Cl)cc5)c(=O)n4n2)cn3C2CC2)CC1` and `Cc1ccc(/C=c2\sc3nc(-c4cn(C5CC5)c5cc(N6CCN(C)CC6)c(F)cc5c4=O)nn3c2=O)cc1` cannot be ordered by IC50: > 10 µM for the first, > 10 µM for the second.

`CN1CCN(c2cc3c(cc2F)c(=O)c(-c2nc4s/c(=C\c5cccc(C(=O)O)c5)c(=O)n4n2)cn3C2CC2)CC1` and `COC(=O)c1cccc(/C=c2\sc3nc(-c4cn(C5CC5)c5cc(N6CCN(C)CC6)c(F)cc5c4=O)nn3c2=O)c1` fall in the same range of IC50: 0.3 to 8.4 µM for the first, 0.3 to 8.4 µM for the second.

`CN1CCN(c2cc3c(cc2F)c(=O)c(-c2nc4s/c(=C\c5cccc(S(N)(=O)=O)c5)c(=O)n4n2)cn3C2CC2)CC1` and `CN1CCN(c2cc3c(cc2F)c(=O)c(-c2nc4s/c(=C\c5cccc([N+](=O)[O-])c5)c(=O)n4n2)cn3C2CC2)CC1` fall in the same range of IC50: 0.3 to 8.4 µM for the first, 0.3 to 8.4 µM for the second.

`CN1CCN(c2cc3c(cc2F)c(=O)c(-c2nc4s/c(=C\c5cccc(C#N)c5)c(=O)n4n2)cn3C2CC2)CC1` and `CN1CCN(c2cc3c(cc2F)c(=O)c(-c2nc4s/c(=C\c5ccc(C#N)cc5)c(=O)n4n2)cn3C2CC2)CC1` cannot be ordered by IC50: > 10 µM for the first, > 10 µM for the second.

`CN1CCN(c2cc3c(cc2F)c(=O)c(-c2nc4s/c(=C\c5ccc([N+](=O)[O-])cc5)c(=O)n4n2)cn3C2CC2)CC1` and `CN1CCN(c2cc3c(cc2F)c(=O)c(-c2nc4s/c(=C\c5ccc(C(=O)O)cc5)c(=O)n4n2)cn3C2CC2)CC1` fall in the same range of IC50: 0.3 to 8.4 µM for the first, 0.3 to 8.4 µM for the second.

First: COc1ccc(/C=c2\sc3nc(-c4cn(C5CC5)c5cc(N6CCN(C)CC6)c(F)cc5c4=O)nn3c2=O)cc1
Second: COC(=O)c1ccc(/C=c2\sc3nc(-c4cn(C5CC5)c5cc(N6CCN(C)CC6)c(F)cc5c4=O)nn3c2=O)cc1
The IC50 of the first is higher: > 10 µM for the first, 0.3 to 8.4 µM for the second.

`COc1ccccc1/C=c1\sc2nc(-c3cn(C4CC4)c4cc(N5CCN(C)CC5)c(F)cc4c3=O)nn2c1=O` was tested, and the IC50 was > 10 µM.

test system: HL-60; assay: Cytotoxicity against human HL60 cells assessed as reduction in cell viability; assay type: functional, cell-based

`CN1CCN(c2cc3c(cc2F)c(=O)c(-c2nc4s/c(=C\c5ccc(Cl)cc5)c(=O)n4n2)cn3C2CC2)CC1` and `Cc1ccc(/C=c2\sc3nc(-c4cn(C5CC5)c5cc(N6CCN(C)CC6)c(F)cc5c4=O)nn3c2=O)cc1` cannot be ordered by IC50: > 10 µM for the first, > 10 µM for the second.

`CN1CCN(c2cc3c(cc2F)c(=O)c(-c2nc4s/c(=C\c5cccc(C(=O)O)c5)c(=O)n4n2)cn3C2CC2)CC1` and `COC(=O)c1cccc(/C=c2\sc3nc(-c4cn(C5CC5)c5cc(N6CCN(C)CC6)c(F)cc5c4=O)nn3c2=O)c1` fall in the same range of IC50: 0.3 to 8.4 µM for the first, 0.3 to 8.4 µM for the second.

`CN1CCN(c2cc3c(cc2F)c(=O)c(-c2nc4s/c(=C\c5cccc(S(N)(=O)=O)c5)c(=O)n4n2)cn3C2CC2)CC1` and `CN1CCN(c2cc3c(cc2F)c(=O)c(-c2nc4s/c(=C\c5cccc([N+](=O)[O-])c5)c(=O)n4n2)cn3C2CC2)CC1` fall in the same range of IC50: 0.3 to 8.4 µM for the first, 0.3 to 8.4 µM for the second.

`CN1CCN(c2cc3c(cc2F)c(=O)c(-c2nc4s/c(=C\c5cccc(C#N)c5)c(=O)n4n2)cn3C2CC2)CC1` and `CN1CCN(c2cc3c(cc2F)c(=O)c(-c2nc4s/c(=C\c5ccc(C#N)cc5)c(=O)n4n2)cn3C2CC2)CC1` cannot be ordered by IC50: > 10 µM for the first, > 10 µM for the second.

`CN1CCN(c2cc3c(cc2F)c(=O)c(-c2nc4s/c(=C\c5ccc([N+](=O)[O-])cc5)c(=O)n4n2)cn3C2CC2)CC1` and `CN1CCN(c2cc3c(cc2F)c(=O)c(-c2nc4s/c(=C\c5ccc(C(=O)O)cc5)c(=O)n4n2)cn3C2CC2)CC1` fall in the same range of IC50: 0.3 to 8.4 µM for the first, 0.3 to 8.4 µM for the second.

Compared with `COc1ccc(/C=c2\sc3nc(-c4cn(C5CC5)c5cc(N6CCN(C)CC6)c(F)cc5c4=O)nn3c2=O)cc1`, `COC(=O)c1ccc(/C=c2\sc3nc(-c4cn(C5CC5)c5cc(N6CCN(C)CC6)c(F)cc5c4=O)nn3c2=O)cc1` is lower in IC50: > 10 µM for the first, 0.3 to 8.4 µM for the second. The second is the more potent here.

In the case of `COc1ccccc1/C=c1\sc2nc(-c3cn(C4CC4)c4cc(N5CCN(C)CC5)c(F)cc4c3=O)nn2c1=O`, the IC50 is reported as > 10 µM.
